In US11427604B2 (Mindset Pharma Inc., priority 2020, dated 2022):
Where two headings read alike, the source gives them in different places.

Columns and labels:
[1] = biological target: human 5-HT2A (h5-HT2A) receptor (Homo sapiens (Human), UniProt P28223); assay: FLIPR assay, human 5-HT2A receptor under agonist mode; type: cell-based
Procedure: I. Assessment of the Activated Effect of Compounds of Formula I Targeting on Human 5-HT2A (h5-HT2A) Receptor Under Agonist Mode
1. Culture the cells in cell culture medium (DMEM containing 10% FBS, 1× penicillin-streptomycin 300 μg/ml G418 and 100 μg/ml hygromycin B) at 37° C., 5% (v/v) CO2.
2. One day before the assays, detach the cell using TrypLE™ Express and count cells using cell counter.
3. Seed 20000 cells/well in 30 μl/well culture medium to a 384-well cell plate and incubate the cells overnight at 37° C., 5% (v/v) C02.
4. On the assay day, prepare 2× dye solution following the manual of the FLIPR® Calcium 6 Assay Kit: i. Dilute the dye with assay buffer (20 mM HEPES in 1×HBSS, PH7.4); ii. Add probenecid to the final concentration of 5 mM; iii. Vortex vigorously for 1-2 minutes.
5. Remove medium from cell plate by flicking the cell plate on towel papers.
6. Add 10 μl of assay buffer and 10 μl of 2× dye solution to each well of the cell plate.
7. Put the cell plate on plate shaker, agitate the plate at 600 rpm for 2 minutes. Incubate the plate at 37° C. for 2 hours followed by additional 15-minute incubation at 25° C.
8. Prepare 3× compound in assay buffer: a. Dilute reference compounds to required concentration with DMSO. Add the compounds to a 384-well compound plate; b. Perform serial dilutions; c. Add 10 mM test compounds to the compound plate, perform 3-fold serial dilutions. d. […] Add 20 μl/well assay buffer to the compound plate; f. Mix the plate on plate shaker for 2 mins;
i. The normalized fluorescence reading (RFU) is calculated as shown follow, while Fmax and Fmin stand for maximum and minimum of calcium signal during defined time window: RFU=Fmax−Fmin
ii. Calculate the percentage activation by using following equation: […]
iii. Calculate EC50 by fitting % activation against log of compound concentrations with Hill equation using XLfit.

[2] = biological target: human 5-HT2A receptor (Homo sapiens (Human), UniProt P28223); assay: Radioligand binding assay ([3H]-ketanserin) on human 5-HT2A receptor
Procedure: i. Prepare the assay buffer following the table below;
ii. Preparation of 8 doses of reference and test compounds starting from 10 mM stock solution as requested by 5-fold serial dilutions with 100%;
iii. […] a. Add 50 μl/well of 0.5% (v/v) PEI to UniFilter-96 GF/B plates. Seal the plates and incubate at 4° C. for 3 hrs; b. After incubation, wash the plates 3 times with ice-cold wash buffer (50 mM Tris, pH7.4);
iv. Preparation of assay plates: a. Dilute cell membrane with assay buffer and add 330 μl/well to 96 round deep well plates to reach a concentration of 20 μg/well; b. Prepare 8 concentrations of reference or exemplary compounds of the application and add 110 μl/well to 96 round deep well plates; c. Dilute [3H]-ketanserin with assay buffer to 5 nM (5× final concentration) and add 110 μl/well to 96 round deep well plates.
v. Centrifuge the plate at 1000 rpm for 30 secs and then agitate at 600 rpm, R.T. for 5 min.
vi. Seal the plates and incubate the plate at 27° C. for 90 min.
vii. Stop the incubation by vacuum filtration onto GF/B filter plates followed by 4 times washing with ice-cold wash buffer (50 mM Tris, pH7.4).
ix. Seal the filter plates and add 40 μl/well of scintillation cocktail.
x. Read the plate by using a Microbeta2 microplate counter.
For reference and exemplary test compounds of the application, the results are expressed as % Inhibition, using the normalization equation: N=100−100×(U−C2)/(C1−C2), where U is the unknown value, C1 is the average of high controls, and C2 is the average of low controls. The IC50 is determined by fitting percentage of inhibition as a function of compound concentrations with Hill equation using XLfit.

[3] = Human liver microsomes stability with NADPH
Procedure: (§1) The objective of this study was to estimate in vitro metabolic stability of 1-45 in pooled human and male mouse liver microsomes. The concentrations of exemplary compounds in reaction systems were evaluated by LC-MS/MS for estimating the stability in pooled human and male mouse liver microsomes. The in vitro intrinsic clearances of test compounds were determined as well.
(§2) A master solution in the “Incubation Plate” containing phosphate buffer, ultra-pure H2O, MgCl2 solution and liver microsomes was made according to Table --. The mixture was pre-warmed at 37° C. water bath for 5 minutes.
(§3) 40 μL of 10 mM NADPH solution was added to each well. The final concentration of NADPH was 1 mM. The negative control samples were prepared by replacing NADPH with 40 μL of ultra-pure H2O. Samples were prepared in duplicate. Negative controls were prepared in singlet.
(§4) The reaction was started with the addition of 4 μL of 200 μM test compounds or control compounds to each master solution to get the final concentration of 2 μM. This study was performed in duplicate.
(§5) Aliquots of 50 μL were taken from the reaction solution at 0, 15, 30, 45 and 60 minutes. The reaction solutions were stopped by the addition of 4 volumes of cold methanol with IS (100 nM alprazolam, 200 nM imipramine, 200 nM labetalol and 2 μM ketoprofen). Samples were centrifuged at 3,220 g for 40 minutes. Aliquot of 90 μL of the supernatant was mixed with 90 μL of ultra-pure H2O and then was used for LC-MS/MS analysis.
(§6) LC/MS analysis was performed for all samples from this study using a Shimadzu liquid chromatograph separation system equipped with degasser DGU-20A5R; solvent delivery unit LC-30AD; system controller SIL-30AC; column oven CTO-30A; CTC Analytics HTC PAL System. Mass spectrometric analysis was performed using an Triple Quad™ 5500 instrument.
(§7) All calculations were carried out using Microsoft Excel. Peak area ratios of test compound to internal standard (listed in the below table) were determined from extracted ion chromatograms.
(§8) All calculations were carried out using Microsoft Excel. Peak areas were determined from extracted ion chromatograms. The slope value, k, was determined by linear regression of the natural logarithm of the remaining percentage of the parent drug vs. incubation time curve.
(§9) Conversion of the in vitro t1/2 (min) into the in vitro intrinsic clearance (in vitro CLint, in μL/min/mg proteins) was done using the following equation (mean of duplicate determinations):
(§10) [formula] […] Results & Discussion

[4] = Mouse liver microsomes stability with NADPH
Procedure: as §1, §2, §3, §4, §5, §6, §7, §8, §9, §10

[5] = Rat liver microsomes stability with NADPH
[6] = cited from earlier work

[2H]C([2H])([2H])N(C([2H])([2H])[2H])C([2H])([2H])C([2H])([2H])c1c[nH]c2cccc(OP(=O)(O)O)c12 [Compound I-3, 3-(2-(bis(methyl-d3)amino)ethyl-1,1,2,2-d4)-1H-indol-4-yl dihydrogen phosphate]
EC50 [1]: 1 to 10 µM
IC50 [2]: 0.5 to 5 µM

[2H]C([2H])([2H])N(C([2H])([2H])[2H])C([2H])([2H])C([2H])([2H])c1c[nH]c2cccc(F)c12 [Compound I-43, 2-(4-fluoro-1H-indol-3-yl)-N,N-bis(methyl-d3)ethan-1-amine-1,1,2,2-d4]
EC50 [1]: < 1 µM
IC50 [2]: < 0.5 µM

[2H]C([2H])([2H])N(C([2H])([2H])[2H])C([2H])([2H])C([2H])([2H])c1c[nH]c2cccc(OC)c12 [Compound I-44, 2-(4-methoxy-1H-indol-3-yl)-N,N-bis(methyl-d3)ethan-1-amine-1,1,2,2-d4]
EC50 [1]: < 1 µM
IC50 [2]: < 0.5 µM

CN(C)CCc1c[nH]c2cccc(O)c12 [Psilocin, 4-hydroxy-N,N-dimethyltryptamine, reference compound]
Remaining Percentage (%) after 60 min ([3]; Human, with NADPH, 2 μM): 70.16%
half-life at 2 μM ([3]; human, microsomes): 1.96 h
microsomal CLint at 2 μM ([3]; human, microsomes): 11.8 µL/min/mg
Remaining Percentage (%) after 60 min ([4]; Mouse, with NADPH, 2 μM): 96.89%
half-life at 2 μM ([4]; male, mouse, microsomes): 2.36 h
microsomal CLint at 2 μM ([4]; male, mouse, microsomes): 9.78 µL/min/mg
Remaining Percentage (%) after 60 min ([5]; Rat, with NADPH, 2 μM): 62.68%
half-life at 2 μM ([5]; rat, microsomes): 1.48 h
microsomal CLint at 2 μM ([5]; rat, microsomes): 15.6 µL/min/mg

CN(C)CCc1c[nH]c2cccc(OP(=O)(O)O)c12 [psilocybin, 4-phosphoryloxy-N,N-dimethyltrypatmine]
abstinence rate ([6]; 12 months follow-up): 67%
abstinence rate ([6]; six months follow-up): 80%
